These results are taken from patent US9668479B2, “Modulating germination of Paenibacillus larvae” (THE BOARD OF REGENTS OF THE NEVADA SYSTEM OF HIGHER …, priority 2013, dated 2017).

Assay [1] relates to P. larvae spores. The assay is described as follows: Inhibition of P. larvae spore germination by indole and phenol, IC50 titration (Example 1). The note with it: for IC50: Paenibacillus larvae. It is filed as cell-based, Paenibacillus larvae subsp. pulvifaciens strain ATCC 49843. The procedure:
The decrease in optical density is proportional to spore germination (Powell, J. Gen. Microbiol., 4:330-338, 1950). Changes in light diffraction during spore germination were monitored at 580 nm (OD580) on a Biomate 5 (ThermoElectron Corporation, Waltham, Mass.) or a Tecan Infinite m200 (Tecan group, Männedorf, Switzerland) spectrophotometer. Experiments were carried out in 96-well plates (200 μL/well). In preparation for germination assays, P. larvae spore suspensions were washed three times with water. Spores were then heat activated at 70° C. for 30 minutes. The heat-activated spores were allowed to reach room temperature and transferred to 0.1 M sodium phosphate buffer (pH 7.0) to an approximate OD580 of 0.70. Spores were monitored for auto-germination for 30 minutes. […] Putative germinants were added individually or in combinations to a final concentration of 3 mM. Experiments were performed in triplicate with at least two different spore preparations. After germinant addition, OD580 of the spore suspension was measured every minute for an hour. Relative OD values were derived by dividing each OD580 reading by the initial OD580. Spore germination rates (v) were calculated from the initial linear decrease in relative OD (Akoachere et al., supra). Germination rates were set to 100% for P. larvae spores that had the fastest germination rate in an assay. Germination rates for other conditions were divided by the maximum germination rate for that assay and are reported as percent germination. […] Spore germination was confirmed in selected samples by microscope observation of Schaeffer-Fulton stained aliquots (Schaeffer and Fulton, supra).
After 15 minutes of incubation, spores were treated with 3 mM L-tyrosine/3 mM uric acid. The germination rate was set to 100% for P. larvae spores germinated in the absence of inhibitor. Germination rates for other conditions were divided by the uninhibited maximum germination rate obtained with 3 mM L-tyrosine/3 mM uric acid, and are reported as percent germination. Percent germination was plotted against inhibitor concentrations. The resulting sigmoidal curves were fitted using the four parameter logistic function in SigmaPlot v.9 to calculate IC50 values.

The subject of assay [2] is P. larvae spores. As to the kind of experiment: Inhibition of P. larvae spore germination, IC50 titration of indole analogs (Example 2). It is filed as cell-based, Paenibacillus larvae subsp. pulvifaciens strain ATCC 49843. The conditions noted are these: Table 2, saturating uric acid/L-tyrosine concentrations, read-out: IC50. The procedure:
After a 15 minute incubation, the spores were treated with 3 mM L-tyrosine-3 mM uric acid. The germination rate was set to 100% for P. larvae spores germinated in the absence of inhibitor. Germination rates for other conditions were divided by the uninhibited maximum germination rate obtained with 3 mM L-tyrosine-3 mM uric acid, and are reported as percent germination. Percent germination was plotted against the inhibitor concentrations.

Assay [3] has as its system honey bee larvae contacted with P. larvae spores. The assay is described as follows: Survival of honey bee larvae fed diet with indole analogs and P. larvae spores. It is filed as in vivo. The note with it: 0.5 mM in larval diet (wj) plus P. larvae spores; for survival of honey bee larvae vs P. larvae spores alone: 7-day development, p<0.002. The procedure: First instar honey bee larvae were obtained from two colonies headed by naturally mated queens (Honey Bee Genetics, Vacaville Calif.). Queens were trapped on empty frames within a cage constructed with queen excluder. Worker bees can fit through the excluder but the queen cannot exit the cage. The frame was placed within the brood chamber to stimulate egg laying by the queen overnight. Eggs were incubated in the hive for 4 days to allow newly hatched larvae to be fed by nurse bees. First instar honey bee larvae were brought into the laboratory and stored in a 35° C. 85% relative humidity chamber before grafting.
Sterile six well plates with a well volume of 17.0 ml were filled with 2.5 ml of pre-warmed artificial worker jelly. Honey bee larvae were transferred into each well using the thin tongue made of flexible plastic from a Chinese grafting tool. The plastic grafting tool was decontaminated with 70% ethanol throughout usage. Grafting was performed in the sterile environment of a honey bee laboratory, and honey bee larvae were then transferred to a bacterial spore laboratory for control and spore exposure treatments.
Artificial worker jelly was prepared using a lyophilized royal jelly, D-glucose, D-fructose, yeast extract, and autoclaved double distilled water. Ingredients minus lyophilized royal jelly were dissolved in autoclaved double distilled water. Lyophilized royal jelly was added to this sugar-yeast extract solution and mixed thoroughly with a vortex mixer. Artificial diet was prepared an hour prior to use for larval rearing. To reduce the development of worker-queen hybrids because of nutrition, the composition and amounts of artificial worker jelly were controlled in every larval stage.
Honey bee larvae were incubated in an air tight plastic container placed inside an incubator. The desired relative humidity (95%) and temperature (35° C.) was verified with an iButton data logger (Maxim Integrated; San Jose, Calif.). The appropriate relative humidity was obtained by placing a solution of 20% glycerol by weight. The plastic containers were was decontaminated throughout usage with detergent, 70% ethanol, and treated with an ultraviolet lamp overnight.
Feeding of diets was performed daily in different amounts according to Table 2. The amount of diet consumed by larvae was assumed based on published literature. A micropipette was used to place a food drop next to the mouth of the larvae. Drowning was avoided by maintaining the appropriate humidity and water content of diet. Forty first and second instar larvae were placed into one well of a six well plate. Third instar larvae were transferred individually to 48 well plates filled with fresh food.
Larval survival was determined daily by observing signs of respiration, disease symptoms, and other abnormalities with a stereo microscope. The number of dead larvae was recorded, and surviving larvae were fed fresh food. The start of pupation was indicated by the appearance of uric acid crystals and light yellow excretions in the remaining food.
The larval survival data was analyzed using the LogRank test in SigmaPlot.

[4] abbreviates: 15 minutes incubation, then 3 mM L-tyrosine/3 mM uric acid, read-out: IC50 inhibition of P. larvae spore germination.
Where [5] appears, read: Table 1, 15 minutes prior to addition of 3 mM uric acid and 3 mM L-tyrosine, standard deviations in parentheses, N/A = no activity under the conditions tested, read-out: IC50.

In the case of `Cn1ccc2ccccc21` [1-N-methylindole], the “IC50 inhibition of P. larvae spore germination” value in the assay on P. larvae spores [1] (15 minutes incubation, then 3 mM L-tyrosine/3 mM uric acid) is “neither activated nor inhibited”.
Broadly, the IC50 is the concentration that inhibits the measured activity by half. In the case of `Cc1c[nH]c2ccccc12` [3-methylindole], the IC50 with P. larvae spores [1] (setting [4]) and in the assay with P. larvae spores [1] (setting [5]) was 380 µM in each case.
In the case of `N#Cc1cccc2[nH]ccc12` [4-cyanoindole], the concentration for half-maximal inhibition (IC50) with P. larvae spores [2] (Paenibacillus larvae) was 200 ± 20 µM.
Consider `Brc1ccc2[nH]ccc2c1` [5-bromindole], for which, in assay [3], the “ranking of effect on larval survival among analogs” value is recorded as “greatest effect” and the “survival of honey bee larvae vs P. larvae spores alone” value (shortened to “survival … vs P. larvae spores alone”) is “increased survival”. Moreover, in the assay on P. larvae spores [2], the IC50 came out at 60 ± 70 µM.
`Fc1ccc2[nH]ccc2c1` [5-fluoroindole]: the IC50 in the assay with P. larvae spores [2] (Paenibacillus larvae) is 120 ± 20 µM.
With `Oc1ccc2[nH]ccc2c1` [5-hydroxyindole], the IC50 in the assay with P. larvae spores [2] (Paenibacillus larvae) stood at 550 ± 170 µM.
For the compound `Cc1ccc2[nH]ccc2c1` [5-methylindole], the IC50 with P. larvae spores [1] (setting [4]) and in the assay with P. larvae spores [1] (setting [5]) was 370 µM throughout.
Consider `O=[N+]([O-])c1ccc2[nH]ccc2c1` [5-nitroindole], for which the “survival … vs P. larvae spores alone” value in assay [3] was “increased survival”. Also, the concentration for half-maximal inhibition (IC50) in the assay with P. larvae spores [2] (Paenibacillus larvae) turned out to be 70 ± 10 µM.
For the compound `Brc1ccc2cc[nH]c2c1` [6-bromoindole], the “survival … vs P. larvae spores alone” value in assay [3] is recorded as “increased survival”. Moreover, the concentration for half-maximal inhibition (IC50) in the assay with P. larvae spores [2] (Paenibacillus larvae) stood at 60 ± 60 µM.
In the same order, the values of `Clc1ccc2cc[nH]c2c1` [6-chloroindole] are “increased survival” and 20 µM.
As for `N#Cc1ccc2cc[nH]c2c1` [6-cyanoindole], the IC50 in the assay with P. larvae spores [2] (Paenibacillus larvae) worked out at 110 ± 10 µM.
The same measure, in the same setting: next, `Fc1ccc2cc[nH]c2c1` [6-fluoroindole]: 120 ± 10 µM.
Regarding `Cc1cccc2cc[nH]c12` [7-methylindole], the IC50 in the assay on P. larvae spores [1] (setting [4]) and in the assay with P. larvae spores [1] (setting [5]) was 280 µM each time.
